Assay results taken from ChEMBL document CHEMBL4190300, “Discovery and Synthesis of Caracolamide A, an Ion Channel Modulating Dichlorovinylidene Containing Phenethylamide from a Panamanian Marine Cyanobacterium cf. Symploca Species” (J Nat Prod, 2017).
Calls of active or inactive are those of the source. The calls are words filed in the database; no cut-off is given here.

How the values were obtained:
Mus musculus = organism: Mus musculus; assay: Inhibition of spontaneous calcium oscillations in Swiss Webster mouse neocortical neurons at 0.01 nM to 1000 nM measured for 2 mins by Fluo-3 AM dye based FLIPR assay
NCI-H460 = assay: Cytotoxicity against human NCI-H460 cells after 48 hrs by MTT assay; type: functional, cell-based; conditions: NCI-H460, 48 h

| SMILES | inhibition (Mus musculus) | IC50 (NCI-H460) [µM] |
| --- | --- | --- |
| NCCc1ccccc1 | Active |  |
| C=CC[C@@H](C[C@@H](C[C@@H](C[C@@H](C[C@@H](C[C@@H](C[C@@H](C[C@@H](C[C@@H](C[C@@H](CCCCC)OC)OC)OC)OC)OC)OC)OC)OC)OC)OC |  | > 10 |
| O=C(CCCCCC=C(Cl)Cl)NCCc1ccccc1 | Active | > 10 |
